Results published in patent US20240158446A1, “CYCLIC COMPOUND HAVING SELECTIVE INHIBITORY ACTION ON KRAS OVER HRAS AND NRAS” (CHUGAI SEIYAKU KABUSHIKI KAISHA, priority 2021, published 2024).
Like-named read-outs stand apart in the source and are kept apart here. Where a SMILES comes first, the peptide text is derived from it. Bridges are numbered along the chain shown (N, C = ends). [ ]: non-standard residue; d: D form. The star is where a group is joined. hPhe(3,5-F2-4-CF3) = N[C@@H](CCc1cc(F)c(C(F)(F)F)c(F)c1)C(=O)O; NPrPhe(4-CF3) = CCCN[C@@H](Cc1ccc(C(F)(F)F)cc1)C(=O)O; NMeGly(cPent) = CN[C@H](C(=O)O)C1CCCC1; NMeD = CN[C@@H](CC(=O)O)C(=O)O; NMeL = CN[C@@H](CC(C)C)C(=O)O; αMeS = C[C@](N)(CO)C(=O)O; Morpholide = C1CN(*)CCO1; Sar = CNCC(=O)O; tBu = CC(C)(C)*

Key:
[1] = molecular target: GDP-bound KRAS wild-type protein (Homo sapiens, UniProt P01116); assay: Binding to KRAS by surface plasmon resonance (SPR), Single Cycle Kinetics; details: GDP-bound KRAS wild-type protein, read-out: KRAS KD
Sequence of GDP-bound KRAS wild-type protein (P01116 whole entry): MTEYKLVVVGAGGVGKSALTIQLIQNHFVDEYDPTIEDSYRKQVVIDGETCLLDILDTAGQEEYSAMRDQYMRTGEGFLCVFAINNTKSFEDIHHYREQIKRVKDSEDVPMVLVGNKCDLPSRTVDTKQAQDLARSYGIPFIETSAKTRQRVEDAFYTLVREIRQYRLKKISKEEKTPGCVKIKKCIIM

[2] = molecular target: GDP-bound HRAS wild-type protein (Homo sapiens, UniProt P01112); assay: Binding to HRAS by surface plasmon resonance (SPR), Single Cycle Kinetics; details: SPR, GDP-bound HRAS wild-type protein vs GDP-bound KRAS wild-type protein
Sequence of GDP-bound HRAS wild-type protein (P01112 whole entry): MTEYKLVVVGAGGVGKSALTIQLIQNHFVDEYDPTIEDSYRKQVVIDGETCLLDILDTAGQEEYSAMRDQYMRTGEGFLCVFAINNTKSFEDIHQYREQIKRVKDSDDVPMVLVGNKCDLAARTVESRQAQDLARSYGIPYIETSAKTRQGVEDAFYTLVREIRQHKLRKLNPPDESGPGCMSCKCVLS

[3] = test system: human lung cancer strain NCI-H441;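 further: cell proliferation inhibition after four days measured by CellTiter-Glo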
[4] = molecular target: GDP-bound NRAS wild-type protein (Homo sapiens, UniProt P01111); assay: Binding to NRAS by surface plasmon resonance (SPR), Single Cycle Kinetics; details: SPR, GDP-bound NRAS wild-type protein vs GDP-bound KRAS wild-type protein
Sequence of GDP-bound NRAS wild-type protein (P01111 whole entry): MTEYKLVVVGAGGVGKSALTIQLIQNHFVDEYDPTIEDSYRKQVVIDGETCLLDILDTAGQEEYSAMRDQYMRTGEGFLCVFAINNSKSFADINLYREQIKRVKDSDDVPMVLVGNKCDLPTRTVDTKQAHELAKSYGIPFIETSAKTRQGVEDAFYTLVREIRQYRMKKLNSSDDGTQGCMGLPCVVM

Row | SMILES | Kd ([1]; SPR Single Cycle Kinetics, 1:1 binding model) | HRAS/KRAS (ratio of KD value with respect to HRAS to KD value with respect to KRAS) [2] | IC50 [3] | NRAS/KRAS (ratio of KD value with respect to NRAS to KD value with respect to KRAS) [4] | Kd ([1]; SPR, Single Cycle Kinetics) | HRAS/KRAS (ratio of KD value for HRAS to KD value for KRAS) [2] | NRAS/KRAS (ratio of KD value for NRAS to KD value for KRAS) [4]
1 | CCCN1C(=O)CN(C)C(=O)CN(C)C(=O)[C@H]([C@@H](C)CC)NC(=O)[C@H](CC(C)C)N(C)C(=O)C[C@@H](C(=O)N2CCOCC2)N(C)C(=O)[C@H](C2CCCC2)N(C)C(=O)[C@](C)(COC(C)(C)C)NC(=O)[C@@H]2CCCN2C(=O)[C@H](CCc2cc(F)c(C(F)(F)F)c(F)c2)NC(=O)CN(C)C(=O)[C@@H]1Cc1ccc(C(F)(F)F)cc1 [PP0764] ([NMeL]I[Sar][Sar][NPrPhe(4-CF3)][Sar][hPhe(3,5-F2-4-CF3)]P[αMeS](tBu)[NMeGly(cPent)][NMeD]-Morpholide; lactam N-11) | 3.4 nM | B (a compound having 3 or more and less than 10 is denoted as B) | 215 nM | B (a compound having 3 or more and less than 10 is denoted as B) |  |  | 
2 | CC[C@H](C)[C@@H]1NC(=O)[C@H](COC)N(C)C(=O)C[C@@H](C(=O)N2CCOCC2)N(C)C(=O)[C@H](C2CCCC2)N(C)C(=O)C2(CCC2)NC(=O)[C@@H]2CCCN2C(=O)[C@H](CCc2cc(F)c(C(F)(F)F)c(F)c2)NC(=O)CN(C)C(=O)[C@H](Cc2ccc(C(F)(F)F)cc2)N2CCCCC[C@@H](C2=O)N(C)C(=O)CNC1=O [PP0860] |  |  | 143 nM |  | 1.1 nM | B (a compound having 3 or more and less than 10 is denoted as B) | B (a compound having 3 or more and less than 10 is denoted as B)
3 | CCO[C@@H]1C[C@H]2C(=O)NC3(CCCC3)C(=O)N(C)[C@@H](C3CCCC3)C(=O)N(C)[C@H](C(=O)N3CCOCC3)CC(=O)N(C)[C@@H](COC)C(=O)N[C@@H]([C@@H](C)CC)C(=O)NCC(=O)N(C)[C@H]3CCCCCN(C3=O)[C@@H](Cc3ccc(C(F)(F)F)cc3)C(=O)N(C)CC(=O)N[C@@H](CCc3cc(F)c(C(F)(F)F)c(F)c3)C(=O)N2C1 [PP0862] |  |  | 81.1 nM |  | 1.1 nM | B (a compound having 3 or more and less than 10 is denoted as B) | B (a compound having 3 or more and less than 10 is denoted as B)
4 | CCO[C@@H]1C[C@H]2C(=O)NC3(CCCC3)C(=O)N(C)[C@@H](C3CCCC3)C(=O)N(C)[C@H](C(=O)N3CCOCC3)CC(=O)N(C)[C@@H](COC)C(=O)N[C@@H]([C@@H](C)CC)C(=O)N3CC[C@H]3C(=O)N(C)[C@H]3CCCCCN(C3=O)[C@@H](Cc3ccc(C(F)(F)F)cc3)C(=O)N(C)CC(=O)N[C@@H](CCc3cc(F)c(C(F)(F)F)c(F)c3)C(=O)N2C1 [PP0867] |  |  | 206 nM |  | 1.2 nM | B (a compound having 3 or more and less than 10 is denoted as B) | B (a compound having 3 or more and less than 10 is denoted as B)
5 | C=CCC[C@H]1C(=O)N[C@@H]([C@@H](C)CC)C(=O)N(C)CC(=O)N(C)[C@H]2CCCCCN(C2=O)[C@@H](Cc2ccc(C(F)(F)F)cc2)C(=O)N(C)CC(=O)N[C@@H](CCc2cc(F)c(C(F)(F)F)c(F)c2)C(=O)N2C[C@H](OCC)C[C@H]2C(=O)N[C@](C)(CC=C)C(=O)N(C)[C@@H](C2CCCC2)C(=O)N(C)[C@H](C(=O)N2CCOCC2)CC(=O)N1C [PP0879] |  |  | 195 nM |  | 8.6 nM | B (a compound having 3 or more and less than 10 is denoted as B) | B (a compound having 3 or more and less than 10 is denoted as B)
6 | CCO[C@@H]1C[C@H]2C(=O)NC3(CCC3)C(=O)N(C)[C@@H](C3CCCC3)C(=O)N(C)[C@H](C(=O)N(C)C)CC(=O)N(C)[C@@H](CC)C(=O)N[C@@H]([C@@H](C)CC)C(=O)N(C)CC(=O)N(C)[C@H]3CCCCCN(C3=O)[C@@H](Cc3ccc(C(F)(F)F)cc3)C(=O)N(C)CC(=O)N[C@@H](CCc3ccc4sccc4c3)C(=O)N2C1 [PP0892] |  |  | 53.6 nM |  | 0.33 nM | B (a compound having 3 or more and less than 10 is denoted as B) | B (a compound having 3 or more and less than 10 is denoted as B)
7 | CCO[C@@H]1C[C@H]2C(=O)NC3(CCC3)C(=O)N(C)[C@@H](C3CCCC3)C(=O)N(C)[C@H](C(=O)N3CCOCC3)CC(=O)N(C)[C@@H](CC(C)C)C(=O)N[C@@H]([C@@H](C)CC)C(=O)N(C)CC(=O)N(C)[C@H]3CCCCCN(C3=O)[C@@H](Cc3ccc4sccc4c3)C(=O)N(C)CC(=O)N[C@@H](CCc3cc(F)c(C(F)(F)F)c(F)c3)C(=O)N2C1 [PP0920] |  |  | 75.5 nM |  | 0.29 nM | B (a compound having 3 or more and less than 10 is denoted as B) | B (a compound having 3 or more and less than 10 is denoted as B)
8 | CCO[C@@H]1C[C@H]2C(=O)NC3(CCC3)C(=O)N(C)[C@@H](C3CCCC3)C(=O)N(C)[C@H](C(=O)N3CCOCC3)CC(=O)N(C)[C@@H](CC(C)C)C(=O)N[C@@H]([C@@H](C)CC)C(=O)N(C)CC(=O)N(C)[C@H]3CCCCCN(C3=O)[C@@H](Cc3ccc4ccsc4c3)C(=O)N(C)CC(=O)N[C@@H](CCc3cc(F)c(C(F)(F)F)c(F)c3)C(=O)N2C1 [PP0921] |  |  | 139 nM |  | 2.6 nM | B (a compound having 3 or more and less than 10 is denoted as B) | B (a compound having 3 or more and less than 10 is denoted as B)
9 | CCO[C@@H]1C[C@H]2C(=O)NC3(CCC3)C(=O)N(C)[C@@H](C3CCCC3)C(=O)N(C)[C@H](C(=O)N3CCOCC3)CC(=O)N(C)[C@@H](Cc3cccc(C)c3)C(=O)N[C@@H]([C@@H](C)CC)C(=O)N(C)CC(=O)N(C)[C@H]3CCCCCN(C3=O)[C@@H](Cc3ccc(C(F)(F)F)cc3)C(=O)N(C)CC(=O)N[C@@H](CCc3cc(F)c(C(F)(F)F)c(F)c3)C(=O)N2C1 [PP0932] |  |  | 158 nM |  | 2.9 nM | B (a compound having 3 or more and less than 10 is denoted as B) | B (a compound having 3 or more and less than 10 is denoted as B)
10 | CCO[C@@H]1C[C@H]2C(=O)NC3(CCC3)C(=O)N(C)[C@@H](C3CCCC3)C(=O)N(C)[C@H](C(=O)N(C)C)CC(=O)N(C)[C@@H](Cc3ccccc3F)C(=O)N[C@@H]([C@@H](C)CC)C(=O)N(C)CC(=O)N(C)[C@H]3CCCCCN(C3=O)[C@@H](Cc3ccc(C(F)(F)F)cc3)C(=O)N(C)CC(=O)N[C@@H](CCc3cc(F)c(C(F)(F)F)c(F)c3)C(=O)N2C1 [PP0934] |  |  | 51.8 nM |  | 0.72 nM | B (a compound having 3 or more and less than 10 is denoted as B) | B (a compound having 3 or more and less than 10 is denoted as B)
11 | CCO[C@@H]1C[C@H]2C(=O)NC3(CCC3)C(=O)N(C)[C@@H](C3CCCC3)C(=O)N(C)[C@H](C(=O)N(C)C)CC(=O)N(C)[C@@H](Cc3ccc(F)c(F)c3)C(=O)N[C@@H]([C@@H](C)CC)C(=O)N(C)CC(=O)N(C)[C@H]3CCCCCN(C3=O)[C@@H](Cc3ccc(C(F)(F)F)cc3)C(=O)N(C)CC(=O)N[C@@H](CCc3cc(F)c(C(F)(F)F)c(F)c3)C(=O)N2C1 [PP0937] |  |  | 39 nM |  | 1 nM | B (a compound having 3 or more and less than 10 is denoted as B) | B (a compound having 3 or more and less than 10 is denoted as B)
12 | CCO[C@@H]1C[C@H]2C(=O)NC3(CCC3)C(=O)N(C)[C@@H](C3CCCC3)C(=O)N(CC)[C@H](C(=O)N3CCOCC3)CC(=O)N(C)[C@@H](CCC(F)F)C(=O)N[C@@H]([C@@H](C)CC)C(=O)N(C)CC(=O)N(C)[C@H]3CCCCCN(C3=O)[C@@H](Cc3ccc(C(F)(F)F)cc3)C(=O)N(C)CC(=O)N[C@@H](CCc3cc(F)c(C(F)(F)F)c(F)c3)C(=O)N2C1 [PP0948] |  |  | 234 nM |  | 3.2 nM | A (a compound having 10 or more and less than 20 is denoted as A) | A (a compound having 10 or more and less than 20 is denoted as A)
13 | CCO[C@@H]1C[C@H]2C(=O)NC3(CCC3)C(=O)N(C)[C@@H](C3CCCC3)C(=O)N(CC)[C@H](C(=O)N3CCOCC3)CC(=O)N(C)[C@@H](CC)C(=O)N[C@@H]([C@@H](C)CC)C(=O)N(C)CC(=O)N(C)[C@H]3C/C=C\CCN(C3=O)[C@@H](Cc3ccc(C(F)(F)F)cc3)C(=O)N(C)CC(=O)N[C@@H](CCc3cc(F)c(C(F)(F)F)c(F)c3)C(=O)N2C1 [PP0979] |  |  | 281 nM |  | 1.7 nM | A (a compound having 10 or more and less than 20 is denoted as A) | AA (a compound having 20 or more is denoted as AA)
14 | CC[C@H](C)[C@@H]1NC(=O)[C@H](CC(C)C)N(C)C(=O)C[C@@H](C(=O)N2CCOCC2)N(C)C(=O)[C@H](C2CCCC2)N(C)C(=O)C2(CCC2)NC(=O)[C@@H]2[C@@H](OCC(F)F)CCN2C(=O)[C@H](CCc2cc(F)c(C(F)(F)F)c(F)c2)NC(=O)CN(C)C(=O)[C@H](Cc2ccc(C(F)(F)F)cc2)N2CCCCC[C@@H](C2=O)N(C)C(=O)CN(C)C1=O [PP1012] |  |  | 41.6 nM |  | 0.9 nM | B (a compound having 3 or more and less than 10 is denoted as B) | A (a compound having 10 or more and less than 20 is denoted as A)
